Results reported in the supplement of paper PMC11061612.

What was measured:
Carboplatin = compound: C1CC(C1)(C(=O)[O-])C(=O)[O-].N.N.[Pt+2] [Carboplatin]; conditions: max 10 µM
In short: (§1)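 Viability was measured with CellTiter-Glo 2.0 luminescence after 72 hours of dosing at a final DMSO of typically 0.2%, and scaled between blank-well and DMSO-well means. Beforehand, cancer cell lines sat 24 hours at 37°C and 5% CO2 in 1536-well plates in 7.5 μl DMEM/F12 or RPMI with 10% FBS. A non-linear mixed effects model fitted two-parameter logistic curves to the dose responses. The single-agent IC50 comes from these fits.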

AZD5363 = compound: C1CN(CCC1(C(=O)N[C@@H](CCO)C2=CC=C(C=C2)Cl)N)C3=NC=NC4=C3C=CN4 [AZD5363]; conditions: max 10 µM
In short: as §1

AZD1775 = compound: C=CCn1c(=O)c2cnc(Nc3ccc(N4CCN(C)CC4)cc3)nc2n1-c1cccc(C(C)(C)O)n1 [AZD1775]; conditions: max 3 µM
In short: as §1

Trametinib = compound: CC(=O)Nc1cccc(-n2c(=O)n(C3CC3)c(=O)c3c(Nc4ccc(I)cc4F)n(C)c(=O)c(C)c32)c1 [Trametinib]; conditions: max 1 µM
In short: as §1

Paclitaxel = compound: CC(=O)O[C@H]1C(=O)[C@@]2(C)[C@H]([C@H](OC(=O)c3ccccc3)[C@]3(O)C[C@H](OC(=O)[C@H](O)[C@@H](NC(=O)c4ccccc4)c4ccccc4)C(C)=C1C3(C)C)[C@]1(OC(C)=O)CO[C@@H]1C[C@@H]2O [Paclitaxel]; conditions: max 3 µM
In short: as §1

Palbociclib = compound: CC(=O)c1c(C)c2cnc(Nc3ccc(N4CCNCC4)cn3)nc2n(C2CCCC2)c1=O [Palbociclib]; conditions: max 10 µM
In short: as §1

AZD1390 = compound: CC(C)n1c(=O)n(C)c2cnc3cc(F)c(-c4ccc(OCCCN5CCCCC5)nc4)cc3c21 [AZD1390]; conditions: max 0.3 µM
In short: as §1

Venetoclax = compound: CC1(C)CCC(CN2CCN(c3ccc(C(=O)NS(=O)(=O)c4ccc(NCC5CCOCC5)c([N+](=O)[O-])c4)c(Oc4cnc5[nH]ccc5c4)c3)CC2)=C(c2ccc(Cl)cc2)C1 [Venetoclax]; conditions: max 1 µM
In short: as §1

Dasatinib = compound: CC1=C(C(=CC=C1)Cl)NC(=O)C2=CN=C(S2)NC3=CC(=NC(=N3)C)N4CCN(CC4)CCO [Dasatinib]; conditions: max 2 µM
In short: as §1

SG3199 = compound: CC1=CN2[C@@H](C1)C=NC3=CC(=C(C=C3C2=O)OC)OCCCCCOC4=C(C=C5C(=C4)N=C[C@@H]6CC(=CN6C5=O)C)OC [SG3199]; conditions: max 0.001 µM
In short: as §1

AZD2811 = compound: CCN(CCO)CCCOc1ccc2c(Nc3cc(CC(=O)Nc4cccc(F)c4)[nH]n3)ncnc2c1 [AZD2811]; conditions: max 1 µM
In short: as §1

SN-38 = compound: CCc1c2c(nc3ccc(O)cc13)-c1cc3c(c(=O)n1C2)COC(=O)[C@]3(O)CC [SN-38]; conditions: max 0.3 µM
In short: as §1

AZD0156 = compound: CN(C)CCCOc1ccc(-c2ccc3ncc4c(c3c2)n(C2CCOCC2)c(=O)n4C)cn1 [AZD0156]; conditions: max 3 µM
In short: as §1

AZD4320 = compound: CN(CC[C@H](CSC1=CC=CC=C1)NC2=C(C=C(C=C2)S(=O)(=O)NC(=O)C3=CC=C(C=C3)N4CCC(CC4)[C@H](C5=CC=CC=C5C6=CC=C(C=C6)Cl)O)S(=O)(=O)C(F)(F)F)CCO [AZD4320]; conditions: max 1 µM
In short: as §1

Alisertib = compound: COc1cc(Nc2ncc3c(n2)-c2ccc(Cl)cc2C(c2c(F)cccc2OC)=NC3)ccc1C(=O)O [Alisertib]; conditions: max 10 µM
In short: as §1

Etoposide = compound: COc1cc([C@@H]2c3cc4c(cc3[C@@H](O[C@@H]3O[C@@H]5CO[C@@H](C)O[C@H]5[C@H](O)[C@H]3O)[C@H]3COC(=O)[C@H]23)OCO4)cc(OC)c1O [Etoposide]; conditions: max 10 µM
In short: as §1

Gefitinib = compound: COc1cc2ncnc(Nc3ccc(F)c(Cl)c3)c2cc1OCCCN1CCOCC1 [Gefitinib]; conditions: max 10 µM
In short: as §1

Prexasertib = compound: COc1cccc(OCCCN)c1-c1cc(Nc2cnc(C#N)cn2)n[nH]1 [Prexasertib]; conditions: max 1 µM
In short: as §1

Doxorubicin = compound: COc1cccc2c1C(=O)c1c(O)c3c(c(O)c1C2=O)C[C@@](O)(C(=O)CO)C[C@@H]3O[C@H]1C[C@H](N)[C@H](O)[C@H](C)O1 [Doxorubicin]; conditions: max 1 µM
In short: as §1

AZD5153 = compound: COc1nnc2ccc(N3CCC(c4ccc(OCCN5CCN(C)C(=O)[C@H]5C)cc4)CC3)nn12 [AZD5153]; conditions: max 1 µM
In short: as §1

Lapatinib = compound: CS(=O)(=O)CCNCc1ccc(-c2ccc3ncnc(Nc4ccc(OCc5cccc(F)c5)c(Cl)c4)c3c2)o1 [Lapatinib]; conditions: max 10 µM
In short: as §1

AZD8186 = compound: C[C@@H](Nc1cc(F)cc(F)c1)c1cc(C(=O)N(C)C)cc2c(=O)cc(N3CCOCC3)oc12 [AZD8186]; conditions: max 10 µM
In short: as §1

Crizotinib = compound: C[C@@H](Oc1cc(-c2cnn(C3CCNCC3)c2)cnc1N)c1c(Cl)ccc(F)c1Cl [Crizotinib]; conditions: max 10 µM
In short: as §1

Savolitinib = compound: C[C@@H](c1ccc2nccn2c1)n1nnc2ncc(-c3cnn(C)c3)nc21 [Savolitinib]; conditions: max 1 µM
In short: as §1

AZD6738 = compound: C[C@@H]1COCCN1C2=NC(=NC(=C2)C3(CC3)[S@](=N)(=O)C)C4=C5C=CNC5=NC=C4 [AZD6738]; conditions: max 10 µM
In short: as §1

AZD5991 = compound: Cc1c2c(nn1C)CSCc1cc(n(C)n1)CSc1cc(c3ccccc3c1)OCCCc1c(C(=O)O)n(C)c3c-2c(Cl)ccc13 [AZD5991]; conditions: max 1 µM
In short: as §1

AZD7648 = compound: Cc1cc2ncnn2cc1Nc1ncc2c(n1)n(C1CCOCC1)c(=O)n2C [AZD7648]; conditions: max 10 µM
In short: as §1

Taselisib = compound: Cc1nc(-c2cn3c(n2)-c2ccc(-c4cnn(C(C)(C)C(N)=O)c4)cc2OCC3)n(C(C)C)n1 [Taselisib]; conditions: max 10 µM
In short: as §1

Selumetinib = compound: Cn1cnc2c(F)c(Nc3ccc(Br)cc3Cl)c(C(=O)NOCCO)cc21 [Selumetinib]; conditions: max 10 µM
In short: as §1

SRA737 = compound: N#Cc1cnc(Nc2cc(NC[C@H]3CNCCO3)c(C(F)(F)F)cn2)cn1 [SRA737]; conditions: max 10 µM
In short: as §1

MK-2206 = compound: NC1(c2ccc(-c3nc4ccn5c(=O)[nH]nc5c4cc3-c3ccccc3)cc2)CCC1 [MK-2206]; conditions: max 10 µM
In short: as §1

Gemcitabine = compound: Nc1ccn([C@@H]2O[C@H](CO)[C@@H](O)C2(F)F)c(=O)n1 [Gemcitabine]; conditions: max 0.3 µM
In short: as §1

[1] = compound: O=C(Nc1ccc2[nH]nc(-c3ccncc3)c2c1)[C@@H]1CCN(CC(=O)N2CCN(c3ccc(-c4ncccn4)cc3)CC2)C1; conditions: max 5 µM
In short: as §1

Olaparib = compound: O=C(c1cc(Cc2n[nH]c(=O)c3ccccc23)ccc1F)N1CCN(C(=O)C2CC2)CC1 [Olaparib]; conditions: max 10 µM
In short: as §1

5-Fluorouracil = compound: O=c1[nH]cc(F)c(=O)[nH]1 [5-Fluorouracil]; conditions: max 20 µM
In short: as §1

CAL-148 (Breast Carcinoma)
IC50, cell viability 72 h (Carboplatin): > 10000 nM | IC50, cell viability 72 h (AZD5363): 274 nM | IC50, cell viability 72 h (AZD1775): 206 nM | IC50, cell viability 72 h (Trametinib): > 1000 nM | IC50, cell viability 72 h (Paclitaxel): 45.2 nM | IC50, cell viability 72 h (Palbociclib): > 10000 nM | IC50, cell viability 72 h (AZD1390): > 300 nM | IC50, cell viability 72 h (Venetoclax): > 1000 nM | IC50, cell viability 72 h (Dasatinib): > 2000 nM | IC50, cell viability 72 h (SG3199): > 1 nM | IC50, cell viability 72 h (AZD2811): 26.2 nM | IC50, cell viability 72 h (SN-38): 2.5 nM | IC50, cell viability 72 h (AZD0156): > 3000 nM | IC50, cell viability 72 h (AZD4320): > 1000 nM | IC50, cell viability 72 h (Alisertib): 1330 nM | IC50, cell viability 72 h (Etoposide): 590 nM | IC50, cell viability 72 h (Gefitinib): > 10000 nM | IC50, cell viability 72 h (Prexasertib): 234 nM | IC50, cell viability 72 h (Doxorubicin): 54.9 nM | IC50, cell viability 72 h (AZD5153): 803 nM | IC50, cell viability 72 h (Lapatinib): > 10000 nM | IC50, cell viability 72 h (AZD8186): > 10000 nM | IC50, cell viability 72 h (Crizotinib): > 10000 nM | IC50, cell viability 72 h (Savolitinib): > 1000 nM | IC50, cell viability 72 h (AZD6738): 3820 nM | IC50, cell viability 72 h (AZD5991): > 1000 nM | IC50, cell viability 72 h (AZD7648): > 10000 nM | IC50, cell viability 72 h (Taselisib): 241 nM | IC50, cell viability 72 h (Selumetinib): > 10000 nM | IC50, cell viability 72 h (SRA737): > 10000 nM | IC50, cell viability 72 h (MK-2206): 1380 nM | IC50, cell viability 72 h (Gemcitabine): 29.9 nM | IC50, cell viability 72 h [1]: > 5000 nM | IC50, cell viability 72 h (Olaparib): > 10000 nM | IC50, cell viability 72 h (5-Fluorouracil): > 20000 nM

CCRF-CEM (T-Lymphoblastic Leukemia)
IC50, cell viability 72 h (Carboplatin): > 10000 nM | IC50, cell viability 72 h (AZD5363): 7970 nM | IC50, cell viability 72 h (AZD1775): 134 nM | IC50, cell viability 72 h (Trametinib): > 1000 nM | IC50, cell viability 72 h (Paclitaxel): 4.87 nM | IC50, cell viability 72 h (Palbociclib): 1950 nM | IC50, cell viability 72 h (AZD1390): > 300 nM | IC50, cell viability 72 h (Venetoclax): > 1000 nM | IC50, cell viability 72 h (Dasatinib): > 2000 nM | IC50, cell viability 72 h (SG3199): > 1 nM | IC50, cell viability 72 h (AZD2811): 6.51 nM | IC50, cell viability 72 h (SN-38): 1.91 nM | IC50, cell viability 72 h (AZD0156): > 3000 nM | IC50, cell viability 72 h (AZD4320): 55.2 nM | IC50, cell viability 72 h (Alisertib): 73.7 nM | IC50, cell viability 72 h (Etoposide): 202 nM | IC50, cell viability 72 h (Gefitinib): > 10000 nM | IC50, cell viability 72 h (Prexasertib): 3.26 nM | IC50, cell viability 72 h (Doxorubicin): 62.6 nM | IC50, cell viability 72 h (AZD5153): 523 nM | IC50, cell viability 72 h (Lapatinib): > 10000 nM | IC50, cell viability 72 h (AZD8186): > 10000 nM | IC50, cell viability 72 h (Crizotinib): 1550 nM | IC50, cell viability 72 h (Savolitinib): > 1000 nM | IC50, cell viability 72 h (AZD6738): 992 nM | IC50, cell viability 72 h (AZD5991): > 1000 nM | IC50, cell viability 72 h (AZD7648): > 10000 nM | IC50, cell viability 72 h (Taselisib): 7250 nM | IC50, cell viability 72 h (Selumetinib): > 10000 nM | IC50, cell viability 72 h (SRA737): 770 nM | IC50, cell viability 72 h (MK-2206): 3980 nM | IC50, cell viability 72 h (Gemcitabine): 32.6 nM | IC50, cell viability 72 h [1]: > 5000 nM | IC50, cell viability 72 h (Olaparib): > 10000 nM | IC50, cell viability 72 h (5-Fluorouracil): > 20000 nM
